# Reference: ChEMBL document CHEMBL1140040, “Synthesis and cytotoxic activity of some novel polycyclic gamma-butyrolactones” (Bioorg Med Chem Lett, 2008)
# Legend:
# [1] = test system: HCT-15; test: Cytotoxicity against human HCT15 cells assessed as age growth inhibition at 10 uM after 48 hrs by sulforhodamine B assay; type: functional; details: HCT-15, 48 h, read-out: GI
# [2] = test system: SF-295; test: Cytotoxicity against human SF295 cells assessed as age growth inhibition at 10 uM after 48 hrs by sulforhodamine B assay; type: functional; details: SF-295, 48 h, read-out: GI
# [3] = test system: SF-295; test: Cytotoxicity against human SF295 cells assessed as age growth inhibition at 50 uM after 48 hrs by sulforhodamine B assay; type: functional; details: SF-295, 48 h, read-out: GI
# [4] = test system: DU-145; test: Cytotoxicity against human DU145 cells assessed as age growth inhibition at 100 uM after 48 hrs by sulforhodamine B assay; type: functional; details: DU-145, 48 h, read-out: GI
# [5] = test system: DU-145; test: Antiproliferative activity against human DU145 cells after 48 hrs by sulforhodamine B assay; type: functional, cell-based; details: DU-145, 48 h
# [6] = test system: COLO 205; test: Cytotoxicity against human COLO205 cells assessed as age growth inhibition at 50 uM after 48 hrs by sulforhodamine B assay; type: functional; details: COLO 205, 48 h, read-out: GI
# [7] = test system: HCT-15; test: Cytotoxicity against human HCT15 cells assessed as age growth inhibition at 100 uM after 48 hrs by sulforhodamine B assay; type: functional; details: HCT-15, 48 h, read-out: GI
# [8] = test system: HCT-15; test: Cytotoxicity against human HCT15 cells assessed as age growth inhibition at 50 uM after 48 hrs by sulforhodamine B assay; type: functional; details: HCT-15, 48 h, read-out: GI
# [9] = test system: SK-OV-3; test: Cytotoxicity against human SKOV3 cells assessed as age growth inhibition at 50 uM after 48 hrs by sulforhodamine B assay; type: functional; details: SK-OV-3, 48 h, read-out: GI
# [10] = test system: HOP-62; test: Cytotoxicity against human HOP62 cells assessed as age growth inhibition at 100 uM after 48 hrs by sulforhodamine B assay; type: functional; details: HOP-62, 48 h, read-out: GI
# [11] = test system: SK-OV-3; test: Cytotoxicity against human SKOV3 cells assessed as age growth inhibition at 10 uM after 48 hrs by sulforhodamine B assay; type: functional; details: SK-OV-3, 48 h, read-out: GI
# [12] = test system: SK-OV-3; test: Cytotoxicity against human SKOV3 cells assessed as age growth inhibition at 100 uM after 48 hrs by sulforhodamine B assay; type: functional; details: SK-OV-3, 48 h, read-out: GI
# [13] = test system: IGROV-1; test: Cytotoxicity against human IGROV1 cells assessed as age growth inhibition at 100 uM after 48 hrs by sulforhodamine B assay; type: functional; details: IGROV-1, 48 h, read-out: GI
# [14] = test system: HOP-62; test: Cytotoxicity against human HOP62 cells assessed as age growth inhibition at 50 uM after 48 hrs by sulforhodamine B assay; type: functional; details: HOP-62, 48 h, read-out: GI
# [15] = test system: IGROV-1; test: Antiproliferative activity against human IGROV1 cells after 48 hrs by sulforhodamine B assay; type: functional, cell-based; details: IGROV-1, 48 h
# [16] = test system: A549; test: Cytotoxicity against human A549 cells assessed as age growth inhibition at 10 uM after 48 hrs by sulforhodamine B assay; type: functional; details: A549, 48 h, read-out: GI
# [17] = test system: A549; test: Antiproliferative activity against human A549 cells after 48 hrs by sulforhodamine B assay; type: functional, cell-based; details: A549, 48 h
# [18] = test system: COLO 205; test: Cytotoxicity against human COLO205 cells assessed as age growth inhibition at 100 uM after 48 hrs by sulforhodamine B assay; type: functional; details: COLO 205, 48 h, read-out: GI
# [19] = test system: COLO 205; test: Cytotoxicity against human COLO205 cells assessed as age growth inhibition at 10 uM after 48 hrs by sulforhodamine B assay; type: functional; details: COLO 205, 48 h, read-out: GI
# [20] = test system: HOP-62; test: Antiproliferative activity against human HOP62 cells after 48 hrs by sulforhodamine B assay; type: functional, cell-based; details: HOP-62, 48 h
# [21] = test system: IGROV-1; test: Cytotoxicity against human IGROV1 cells assessed as age growth inhibition at 10 uM after 48 hrs by sulforhodamine B assay; type: functional; details: IGROV-1, 48 h, read-out: GI
# [22] = test system: SK-OV-3; test: Antiproliferative activity against human SKOV3 cells after 48 hrs by sulforhodamine B assay; type: functional, cell-based; details: SK-OV-3, 48 h
# [23] = test system: HOP-62; test: Cytotoxicity against human HOP62 cells assessed as age growth inhibition at 10 uM after 48 hrs by sulforhodamine B assay; type: functional; details: HOP-62, 48 h, read-out: GI
# [24] = test system: SF-295; test: Antiproliferative activity against human SF295 cells after 48 hrs by sulforhodamine B assay; type: functional, cell-based; details: SF-295, 48 h
# [25] = test system: HEp-2; test: Cytotoxicity against human HEP2 cells assessed as age growth inhibition at 10 uM after 48 hrs by sulforhodamine B assay; type: functional; details: HEp-2, 48 h, read-out: GI
# [26] = test system: DU-145; test: Cytotoxicity against human DU145 cells assessed as age growth inhibition at 50 uM after 48 hrs by sulforhodamine B assay; type: functional; details: DU-145, 48 h, read-out: GI
# [27] = test system: HEp-2; test: Cytotoxicity against human HEP2 cells assessed as age growth inhibition at 100 uM after 48 hrs by sulforhodamine B assay; type: functional; details: HEp-2, 48 h, read-out: GI
# [28] = test system: HCT-15; test: Antiproliferative activity against human HCT15 cells after 48 hrs by sulforhodamine B assay; type: functional, cell-based; details: HCT-15, 48 h
# [29] = test system: A549; test: Cytotoxicity against human A549 cells assessed as age growth inhibition at 50 uM after 48 hrs by sulforhodamine B assay; type: functional; details: A549, 48 h, read-out: GI
# [30] = test system: HEp-2; test: Antiproliferative activity against human HEP2 cells after 48 hrs by sulforhodamine B assay; type: functional, cell-based; details: HEp-2, 48 h
# [31] = test system: COLO 205; test: Antiproliferative activity against human COLO205 cells after 48 hrs by sulforhodamine B assay; type: functional, cell-based; details: COLO 205, 48 h
# [32] = test system: SF-295; test: Cytotoxicity against human SF295 cells assessed as age growth inhibition at 100 uM after 48 hrs by sulforhodamine B assay; type: functional; details: SF-295, 48 h, read-out: GI
# [33] = test system: DU-145; test: Cytotoxicity against human DU145 cells assessed as age growth inhibition at 10 uM after 48 hrs by sulforhodamine B assay; type: functional; details: DU-145, 48 h, read-out: GI
# [34] = test system: HEp-2; test: Cytotoxicity against human HEP2 cells assessed as age growth inhibition at 50 uM after 48 hrs by sulforhodamine B assay; type: functional; details: HEp-2, 48 h, read-out: GI
# [35] = test system: A549; test: Cytotoxicity against human A549 cells assessed as age growth inhibition at 100 uM after 48 hrs by sulforhodamine B assay; type: functional; details: A549, 48 h, read-out: GI
# [36] = test system: IGROV-1; test: Cytotoxicity against human IGROV1 cells assessed as age growth inhibition at 50 uM after 48 hrs by sulforhodamine B assay; type: functional; details: IGROV-1, 48 h, read-out: GI
# [37] = test system: HCT-15; test: Cytotoxicity against human HCT15 cells assessed as age growth inhibition at 20 uM after 48 hrs by sulforhodamine B assay; type: functional; details: HCT-15, 48 h, read-out: GI
# [38] = test system: A549; test: Cytotoxicity against human A549 cells assessed as age growth inhibition at 20 uM after 48 hrs by sulforhodamine B assay; type: functional; details: A549, 48 h, read-out: GI
# [39] = test system: COLO 205; test: Cytotoxicity against human COLO205 cells assessed as age growth inhibition at 20 uM after 48 hrs by sulforhodamine B assay; type: functional; details: COLO 205, 48 h, read-out: GI
# [40] = test system: SF-295; test: Cytotoxicity against human SF295 cells assessed as age growth inhibition at 20 uM after 48 hrs by sulforhodamine B assay; type: functional; details: SF-295, 48 h, read-out: GI
# [41] = test system: HOP-62; test: Cytotoxicity against human HOP62 cells assessed as age growth inhibition at 20 uM after 48 hrs by sulforhodamine B assay; type: functional; details: HOP-62, 48 h, read-out: GI
# [42] = test system: DU-145; test: Cytotoxicity against human DU145 cells assessed as age growth inhibition at 20 uM after 48 hrs by sulforhodamine B assay; type: functional; details: DU-145, 48 h, read-out: GI
# [43] = test system: HEp-2; test: Cytotoxicity against human HEP2 cells assessed as age growth inhibition at 20 uM after 48 hrs by sulforhodamine B assay; type: functional; details: HEp-2, 48 h, read-out: GI
# [44] = test system: IGROV-1; test: Cytotoxicity against human IGROV1 cells assessed as age growth inhibition at 20 uM after 48 hrs by sulforhodamine B assay; type: functional; details: IGROV-1, 48 h, read-out: GI
# [45] = test system: SK-OV-3; test: Cytotoxicity against human SKOV3 cells assessed as age growth inhibition at 20 uM after 48 hrs by sulforhodamine B assay; type: functional; details: SK-OV-3, 48 h, read-out: GI
smiles,measurement,setting,value
CC1(C)CCC[C@@]2(C)C1=C[C@H]1C(=O)O[C@H](c3ccc(F)cc3)[C@H]12,inhibition of growth at 10 µM,[1],13%
same,inhibition of growth at 10 µM,[2],4%
same,inhibition of growth at 50 µM,[3],10%
same,inhibition of growth at 100 µM,[4],35%
same,IC50,[5],> 100 µM
same,inhibition of growth at 50 µM,[6],26%
same,inhibition of growth at 100 µM,[7],38%
same,inhibition of growth at 50 µM,[8],34%
same,inhibition of growth at 50 µM,[9],13%
same,inhibition of growth at 100 µM,[10],27%
same,inhibition of growth at 10 µM,[11],6%
same,inhibition of growth at 100 µM,[12],41%
same,inhibition of growth at 100 µM,[13],29%
same,inhibition of growth at 50 µM,[14],14%
same,IC50,[15],> 100 µM
same,inhibition of growth at 10 µM,[16],2%
same,IC50,[17],79.3 µM
same,inhibition of growth at 100 µM,[18],32%
same,inhibition of growth at 10 µM,[19],11%
same,IC50,[20],> 100 µM
same,inhibition of growth at 10 µM,[21],7%
same,IC50,[22],> 100 µM
same,inhibition of growth at 10 µM,[23],9%
same,IC50,[24],> 100 µM
same,inhibition of growth at 10 µM,[25],7%
same,inhibition of growth at 50 µM,[26],0%
same,inhibition of growth at 100 µM,[27],23%
same,IC50,[28],> 100 µM
same,inhibition of growth at 50 µM,[29],45%
same,IC50,[30],> 100 µM
same,IC50,[31],> 100 µM
same,inhibition of growth at 100 µM,[32],15%
same,inhibition of growth at 10 µM,[33],0%
same,inhibition of growth at 50 µM,[34],13%
same,inhibition of growth at 100 µM,[35],51%
same,inhibition of growth at 50 µM,[36],20%
O=c1[nH]cc(F)c(=O)[nH]1 [FLUOROURACIL],inhibition of growth at 20 µM,[37],30%
same,inhibition of growth at 20 µM,[38],57%
same,inhibition of growth at 20 µM,[39],27%
same,inhibition of growth at 20 µM,[40],11%
same,inhibition of growth at 20 µM,[41],37%
same,inhibition of growth at 20 µM,[42],29%
same,inhibition of growth at 20 µM,[43],77%
same,inhibition of growth at 20 µM,[44],29%
same,inhibition of growth at 20 µM,[45],46%
